The source of these data is US9795585B2, “Methods of using L-butylphthalide for the prevention and treatment of cerebral ischemia disease” (priority 2004, dated 2017).

Assay [1] has as its system focal cerebral ischemia in rats. In words: Memory disorder induced by focal cerebral ischemia (shuttle box, artery ligation by method of Tamura). The assay is classed as in vivo, male Wistar rats. As to conditions: 15 and 30 mg/kg oral 15 min after operation; observed after 24 hours; vs vehicle control. The method, then:
Experimental Animal: The same as Example 1. Experimental Equipment: Shuttle box. Experimental Methods: • 1. Rats were trained to acquire learning and memory; • 2. Artery ligation: Artery ligation was conducted on rats according to the method of Tamura. After 24 hours, the experiment of learning as in step (1) was repeatedly conducted on rats. • 3. Grouping and administration: the rats were divided into 9 groups, which were normal group, pseudo-operation group, ischemia control group, and groups of dl-, d-, and l-NBP (15 and 30 mg/kg). The rats were orally administered at 15 min after the operation, and the changes of latency of active and passive avoidance response were observed after 24 hours.

Assay [2] has as its system ischemic brain of decapitated mice. Put plainly: Ischemic cerebral metabolism of energy induced by decapitation of mice. The format is in vivo, KunMing mice. Conditions: NBP 50 and 100 mg/kg oral, sodium Phenobarbital 225 mg/kg ip.; decapitated 30 minutes after administration; 15 seconds ischemia; vs control group. On the procedure: Experimental Animals: KunMing mice.
Test drug: injectable L-butylphthalide was formulated into an emulsion with Tween-80.
Experimental Methods: KunMing mice of 10 to 22 g were divided into 8 groups with 10 mice per group. dl-, d-, and l-NBP (50 and 100 mg/kg/d), sodium Phenobarbital (225 mg/kg ip.) and the vehicle were orally administered. Thirty minutes after administration, the mice were decapitated.
The time between the decapitation and homogenation, which was 15 seconds, was regarded as cerebral ischemic time. Centrifugation and isolation were conducted by the method of Folbergrova, and the contents of lactic acid, ATP and PCr were determined by enzymological method.

For `CCCCC1OC(=O)c2ccccc21` (racemic) [dl-NBP, butylphthalide], in assay [1], the “times of active avoidance” value is recorded as “not observed”. Moreover, in assay [2], the “content of ATP in the brain” value is recorded as “no such significant effect”, the “content of PCr in the brain” value is “no such significant effect” and the “content of lactic acid in the brain” value is reported as “no such significant effect”.

In the case of `CCCC[C@@H]1OC(=O)c2ccccc21` [l-NBP, L-butylphthalide], the “times of active avoidance” value in assay [1] is “significantly increased”. Moreover, in assay [2], the “content of ATP in the brain” value is “increased”, the “content of PCr in the brain” value is recorded as “increased” and the “content of lactic acid in the brain” value is given as “significantly decreased”.
